Source: US20190225644A1, “MRNA CAP ANALOGS AND METHODS OF MRNA CAPPING” (ModernaTX, Inc., priority 2015, published 2019)
pKd: −log10 of the molar value.

Experiments:
[1] = target: T1, eIF4E (Homo sapiens, UniProt P06730); assay: biochemical
Procedure: (§1) A sensor chip SA (GE Healthcare) is docked into a Biacore 3000 instrument.
(§2) Compound concentration series are injected over the immobilized protein serially in increasing concentration. Interaction models are fitted globally to the experimental traces, enabling determination of Kd or KD (binding affinity; unit: M) and possibly kon (on-rate, calculated from the association phase; unit: M^−1s^−1) and koff (off-rate, calculated from the dissociation phase; unit: s^−1).
(§3) A sensor chip (SAD5001 or SA) was docked into a Biacore 3000 instrument, washed with 50 mM NaOH, 1M NaCl. Protein eIF4E was diluted in running buffer (50 mM HEPES, 150 mM KCl, 10 mM MgCl2, 2 mM TCEP) to ˜1 μM. The diluted protein solution was injected for 300-600 seconds. Typical capture levels were 5000-6000 RU.
(§4) Test compounds were solubilized in ddH2O or DMSO to 10 mM. 100 μM stocks were prepared by 100-fold dilution in running buffer (50 mM HEPES, 150 mM KCl, 10 mM MgCl2). Assay was run with or without 1% DMSO.
(§5) Data were analyzed in GeneData. Curve fit was accepted or rejected by looking at the resulting sensorgrams and steady state fits.
(§6) Assay has been validated using running buffer with and without DMSO. […] Further, newly captured protein stabilizes slowly, leading to negative responses during the dissociation phase for compounds injected over newly captured protein.

[2] = target: T1, eIF4E
Procedure: as §1, §2, §3, §4, §5, §6

T1 sequence (P06730 32-217): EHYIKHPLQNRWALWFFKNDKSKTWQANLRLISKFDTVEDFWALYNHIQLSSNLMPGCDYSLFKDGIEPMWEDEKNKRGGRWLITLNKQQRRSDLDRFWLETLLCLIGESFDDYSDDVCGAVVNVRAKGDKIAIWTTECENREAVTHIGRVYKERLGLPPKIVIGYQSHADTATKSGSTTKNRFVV

Structure (SMILES) | pKd [1] | koff [2] [s⁻¹]
BP(=O)(OP(=O)([O-])OC[C@H]1O[C@@H](n2c[n+](C)c3c(=O)[nH]c(N)nc32)[C@H](OC)[C@@H]1O)OP(=O)(O)OC[C@H]1O[C@@H](n2cnc3c(=O)[nH]c(N)nc32)[C@H](O)[C@@H]1O (stereo partly drawn) [Compound 005-3] | 5.96 to 6.30 | –
CO[C@@H]1[C@H](O)[C@@H](COP(=O)(O)OP(=O)([O-])OP(=O)([O-])OP(=O)(O)OC[C@H]2O[C@@H](n3c[n+](C)c4c(=O)[nH]c(N)nc43)[C@H](O)[C@@H]2O)O[C@H]1n1c[n+](C)c2c(=O)[nH]c(N)nc21 [Compound 005-6] | 5.96 | 0.41
CO[C@@H]1[C@H](O)[C@@H](COP(=O)([O-])OP(=O)([O-])OP(=O)(O)OC[C@H]2O[C@@H](n3c[n+](C)c4c(=O)[nH]c(N)nc43)[C@H](O)[C@@H]2O)O[C@H]1n1c[n+](C)c2c(=O)[nH]c(N)nc21 [Compound 005-7] | 5.57 | 0.26
CO[C@@H]1[C@H](O)[C@@H](COP(=O)([O-])OP(=O)([O-])OC[C@H]2O[C@@H](n3c[n+](C)c4c(=O)[nH]c(N)nc43)[C@H](O)[C@@H]2O)O[C@H]1n1c[n+](C)c2c(=O)[nH]c(N)nc21 [Compound 005-8] | 4.12 | 3.8
C[n+]1cn([C@@H]2O[C@H](COP(=O)([O-])OP(=O)([O-])OC[C@H]3O[C@@H](n4c[n+](C)c5c(=O)[nH]c(N)nc54)[C@H](O)[C@@H]3O)[C@@H](O)[C@H]2O)c2nc(N)[nH]c(=O)c21 [Compound 005-15] | 4.12 | 3.8
COCCO[C@@H]1[C@H](O)[C@@H](COP(=O)(O)OP(=O)([O-])OP(=O)(O)OC[C@H]2O[C@@H](n3cnc4c(=O)[nH]c(N)nc43)[C@H](OC)[C@@H]2O)O[C@H]1n1c[n+](C)c2c(=O)[nH]c(N)nc21 [Compound 005-19] | 5.38 | 0.94
C[n+]1cn([C@H]2C[C@H](O)[C@@H](COP(=O)(O)OP(=O)([O-])OP(=O)(O)OC[C@H]3O[C@@H](n4cnc5c(=O)[nH]c(N)nc54)[C@H](O)[C@@H]3O)O2)c2nc(N)[nH]c(=O)c21 [Compound 005-31] | 5.45 | –
C#CCN1C[C@@H](COP(=O)([O-])OP(=O)(O)OP(=O)(O)OC[C@H]2O[C@@H](n3cnc4c(=O)[nH]c(N)nc43)[C@H](O)[C@@H]2O)O[C@@H](n2c[n+](C)c3c(=O)[nH]c(N)nc32)C1 [Compound 006-27] | 5.04 | 1
BP(=O)(OP(=O)([O-])OC[C@H]1O[C@@H](n2cnc3c(=O)[nH]c(N)nc32)[C@H](O)[C@@H]1O)OP(=O)(O)OCC1CN(C)CC(n2c[n+](C)c3c(=O)[nH]c(N)nc32)O1 (stereo partly drawn) [Compound 006-30] | 5.77 | –
C[n+]1cn(C2CN(Cc3ccccc3)CC(COP(=O)(O)OP(=O)([O-])OP(=O)([O-])OC[C@H]3O[C@@H](n4c[n+](C)c5c(=O)[nH]c(N)nc54)[C@H](O)[C@@H]3O)O2)c2nc(N)[nH]c(=O)c21 (stereo partly drawn) [Compound 006-31] | 5.62 | 0.33
C[n+]1cn(C(CO)OC(CO)COP(=O)(O)OP(=O)(O)OP(=O)(O)OC[C@H]2O[C@@H](n3cnc4c(=O)[nH]c(N)nc43)[C@H](O)[C@@H]2O)c2nc(N)[nH]c(=O)c21 (stereo partly drawn) [Compound 006-36] | 4.92 | –
CO[C@@H]1[C@H](O)[C@@H](COP(=O)(O)OP(=O)([O-])OP(=O)(O)OCC2O[C@@H](n3c[n+](C)c4c(=O)[nH]c(N)nc43)[C@](C)(O)[C@@H]2O)O[C@H]1n1cnc2c(=O)[nH]c(N)nc21 (stereo partly drawn) [Compound 007-38] | 4.96 | –
C[n+]1cn([C@@H]2O[C@H](COP(=O)([O-])OCCOCCOP(=O)([O-])OC[C@H]3O[C@@H](n4c[n+](C)c5c(=O)[nH]c(N)nc54)[C@H](O)[C@@H]3O)[C@@H](O)[C@H]2O)c2nc(N)[nH]c(=O)c21 [Compound 008-2] | 3.96 | –
C[n+]1cn([C@@H]2O[C@H](COP(=O)(O)OCCN(CCOP(=O)(O)OC[C@H]3O[C@@H](n4c[n+](C)c5c(=O)[nH]c(N)nc54)[C@H](O)[C@@H]3O)C(=O)OC(C)(C)C)[C@@H](O)[C@H]2O)c2nc(N)[nH]c(=O)c21 [Compound 008-25] | 3.52 | –
